Assays:
[1] = test system: IL-1β secretion in RAW264.7 cells induced by LPS; test: IL-1β content in supernatant of LPS-induced RAW264.7 cells (ELISA); assay type: cell-based, mouse; conditions: 20 μM, LPS, 24 h, RAW264.7, vs model group
Description: Interleukin-1β (IL-1β) has strong proinflammatory activity and can induce the production of a variety of proinflammatory mediators, such as cytokines and chemokines. In this work, the ELISA method was used to determine the IL-1β content in the supernatant of RAW264.7 cells stimulated by LPS to evaluate the effects of five compounds on IL-1β secretion.
(§1) RAW264.7 mouse macrophages were purchased from Zhongqiao Xinzhou and cultured in DMEM supplemented with 10% fetal bovine serum (FBS) and 1% penicillin/streptomycin in a 37 °C, 5% CO2 incubator. The cells were passaged every two days to maintain the monolayer cell state.
(§2) The RAW264.7 cells in the logarithmic growth phase were seeded in a 24-well plate and placed in a 37 °C, 5% CO2 constant temperature incubator for culture. After 24 h, the culture medium was discarded. The blank group was added with 10% FBS DMEM 1 mL. The group was added with a medium containing 1 ug/mL LPS, and the experimental group was added with LPS and different concentrations of the target compound to make the final volume 1 mL. After 24 h of culture, the cell supernatant was taken and stored in a refrigerator at −20 °C for later use. The Griess kit was used to determine the concentration of NO in the supernatant, and a double antibody sandwich ELISA kit was used to detect TNF-α and IL-1β.

[2] = test system: TNF-α secretion in RAW264.7 cells induced by LPS; test: TNF-α content in supernatant of LPS-induced RAW264.7 cells (ELISA); assay type: cell-based, mouse; conditions: 20 μM, LPS 1 ug/mL, 24 h, RAW264.7, vs model group
Description: Tumor necrosis factor-α (TNF-α) is a pleiotropic proinflammatory cytokine, known for its proinflammatory activity. To explore the inhibitory effects of five compounds on TNF-α, ELISA was used to determine the content of inflammatory factor TNF-α in the supernatant of RAW264.7 cells stimulated by LPS. RAW264.7 cells secreted a large amount of inflammatory-factor TNF-α 24 h after LPS (1 ug/mL) induction.
as §1, §2

[3] = test system: xylene-induced ear edema in mice; test: Xylene-induced ear edema in mice; assay type: in vivo, Kunming mice; conditions: for Degree of Edema: 30 μL xylene, 30 min, mean ± SD, n = 6; for Inhibition of ear swelling: xylene-induced ear edema
Description: To evaluate the differences in anti-inflammatory effects of the five compounds, the in vivo anti-inflammatory experiment was conducted based on the acute inflammation model of ear swelling induced by xylene. Under the inflammatory effect of 30 μL of xylene, the degree of ear swelling in the blank group and each experimental group was different. […] With an increase in dose the degree of ear swelling decreased, and the effect of ear swelling inhibition was more significant at high dose (100 mg/kg). Under the action of drugs, the five target compounds (1–5) have significant inhibitory effects on ear swelling (Figure 6).
Adult male Kunming mice (18–20 g) were bought from Liaoning Changsheng Biotechnology Co., Ltd. (Shenyang, China, License No. SCXK (Liao) 2015-0001). The breeding is carried out under standard conditions without pathogens (constant room temperature 20–22 °C, 55 ± 5% humidity, 12 h light–dark cycle and free access to food and water). The research protocol has been approved by the Animal Experiment Ethics Committee of the School of Pharmacy of Jilin University (20190048). All experimental operations follow the principles of laboratory animal care, and all animal experiments are conducted in accordance with the Guide for the Care and Use of Laboratory Animals (released by the National Research Council).
In this experiment, Kunming mice were randomly divided into two groups. One group was given 5% sodium carboxymethyl cellulose solution as the blank group, and the other group was given different concentrations of the target compound as the experimental group (high, medium and low doses); continuous intragastric administration was two days and the volume of intragastric administration was 0.2 mL. One hour after the last administration, 30 μL of xylene was evenly smeared on both sides of the mouse’s right ear. After 30 min, the mouse’s right ear was obviously red and swollen and the capillary congestion was severe. Cervical vertebrae were dislocated and sacrificed. The ears on both sides were quickly cut off, an 8 mm ear punch was used to punch holes at the same position on the ears on both sides and they were immediately weighed to calculate the weight difference.
The formula for the difference in ear weight is as follows:(2) D=Wr−Wl where Wr was the weight of the right ear and Wl was the weight of the left ear.
The formula for the inhibition rate of ear swelling is as follows:(3) Inhibition %=Dc−Dt/Dc×100% where Dc was the extent of ear edema of the control group and Dt was the extent of ear edema of the treatment group.

[4] = Cytotoxicity determination by CCK-8; assay type: cell-based; conditions: mouse, RAW264.7 macrophage cells, RAW264.7 cells
Description: as §1
The CCK-8 kit was used to determine the cytotoxicity of the target compounds (1–5) to RAW264.7 cells. The well-growing cells were subcultured in a 96-well plate. After the cells adhered to the wall, the experimental group was added with a medium containing different concentrations of compounds to make the final concentration reach 5, 10, 20, 40, 80, 160 and 320 μmoL/L. The control group was added with a medium without compound, and a blank group without cells or compound was set at the same time. After culturing in a constant temperature incubator for a period, CCK-8 solution was added to produce yellow formazan product. The OD value was measured by the microplate reader at the detection wavelength of 450 nm, and the cell survival rate was calculated. The cell survival rate formula is as follows:(1) Cell Survival Rate %=ODe−ODb/ODc−ODb×100% where ODe was the OD value of the experimental group, ODb was the OD value of the blank group, and ODc was the OD value of the control group.

[5] = test system: xylene-induced ear edema in mice; set-up: method as in PMID 31247960, doi:10.2174/157018012800673092; conditions: previous study; cited from earlier work
[6] = 25 mg/kg intragastric for two days
[7] = 50 mg/kg intragastric for two days
[8] = 100 mg/kg (high dose) intragastric
[9] = 100 mg/kg intragastric for two days

melting point	Structure (SMILES)	inhibition of IL-1β secretion [1]	inhibition of TNF-α secretion [2]	Degree of Edema [3, 6]	Inhibition of ear swelling ([3]; 25 mg/kg intragastric)	Degree of Edema [3, 7]	Inhibition of ear swelling ([3]; 50 mg/kg intragastric)	Inhibition of ear swelling [3, 8]	Degree of Edema [3, 9]	CC50 [4]	effect on ear edema in mice caused by xylene [5]
140.6 to 141.5 °C	CN1CC(=O)N(C(=O)C=Cc2ccccc2)C1=O [Compound 1, 3-cinnamoyl-1-methylimidazolidine-2,4-dione]	no obvious inhibitory effect on IL-1β	no obvious inhibitory effect on TNF-α	9.84 ± 0.72 mg	19.67%	8.47 ± 0.64 mg	30.86%	44.16%	6.84 ± 0.61 mg	264 µM	
164.8 to 166.1 °C	CN1CC(=O)N(C(=O)/C=C/c2ccc3c(c2)OCO3)C1=O [Compound 3, (E)-3-(3-(benzo[d][1,3]dioxol-5-yl)acryloyl)-1-methylimidazolidine-2,4-dione]	no obvious inhibitory effect on IL-1β	no obvious inhibitory effect on TNF-α	9.41 ± 1.37 mg	23.18%	9.05 ± 0.84 mg	26.12%	33.06%	8.20 ± 0.27 mg	184 µM	
148.3 to 149.8 °C	COc1cc(/C=C/C(=O)N2C(=O)CN(C)C2=O)ccc1OC(C)=O [Compound 5, (E)-2-methoxy-4-(3-(3-methyl-2,5-dioxoimidazolidin-1-yl)-3-oxoprop-1-en-1-yl)phenyl acetate]	no obvious inhibitory effect on IL-1β	no obvious inhibitory effect on TNF-α	10.46 ± 0.64 mg	14.61%	7.95 ± 0.71 mg	35.10%	52.08%	5.87 ± 0.75 mg	232 µM	
	CN1CC(=O)NC1=O [MHD, 1-Methylhydantoin]										can reduce ear edema in mice caused by xylene

— publication PMC9737772, “Synthesis and Anti-Inflammatory Activity of 1-Methylhydantoin Cinnamoyl Imides” (Molecules, 2022)
